These compounds were tested against T1, human PAH with the R408W mutation (Homo sapiens, UniProt P00439, R408W) (assay: Cell Based Phenylalanine Flux Assay). Conditions: A375 cells expressing R408W PAH; 24 hrs with compound, then 20 µM sepiapterin and 800 µM 13C9,15N-Phenylalanine for 4 hours; 13C-Tyrosine by LC-MS; average where tested multiple times; read-out: AC50.
T1 construct: expressed in transfected cells
T1 sequence (P00439 1-452 R408W): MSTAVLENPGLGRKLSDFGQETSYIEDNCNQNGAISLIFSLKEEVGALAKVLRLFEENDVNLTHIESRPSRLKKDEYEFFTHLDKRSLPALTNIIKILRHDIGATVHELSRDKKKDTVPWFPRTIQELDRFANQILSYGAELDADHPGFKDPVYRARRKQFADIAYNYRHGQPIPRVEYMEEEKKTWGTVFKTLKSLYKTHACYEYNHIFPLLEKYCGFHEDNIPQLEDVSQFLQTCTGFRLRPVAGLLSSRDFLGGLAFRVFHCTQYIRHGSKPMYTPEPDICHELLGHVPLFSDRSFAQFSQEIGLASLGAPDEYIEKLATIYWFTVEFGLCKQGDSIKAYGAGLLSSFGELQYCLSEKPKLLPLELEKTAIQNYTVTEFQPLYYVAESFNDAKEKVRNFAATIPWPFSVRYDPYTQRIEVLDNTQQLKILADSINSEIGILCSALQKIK
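Note: after compound treatment, cells received sepiapterin plus isotope-labelled Phenylalanine for 4 hours, then labelled Tyrosine in the medium was quantified, 10-point 2-fold dilution series run in duplicate.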

c1cnnc(-c2nnc(N3CCc4[nH]cnc4C3c3cc4c(C5CC5)cccn4n3)o2)c1 (centres unmarked) and c1cncc(-c2nnc(N3CCc4[nH]cnc4C3c3cc4c(C5CC5)cccn4n3)o2)c1 (centres unmarked) fall in the same range of AC50: 1 to 5 µM for the first, 1 to 5 µM for the second.

Compared with CC(C)(F)c1nnc(N2CCc3[nH]cnc3C2c2cc3c(C4CC4)cccn3n2)o1 (centres unmarked), Fc1cccn2nc(C3c4nc[nH]c4CCN3c3nnc(C4CCC4)o3)cc12 (centres unmarked) is lower in AC50: over 5 µM for the first, 1 to 5 µM for the second.

Nc1cnc(N2CCc3[nH]cnc3C2c2cc3cccc(Cl)n3n2)nc1 (centres unmarked) and Cc1cccc2cc(C3c4nc[nH]c4CCN3C(=O)c3ncnn3C)nn12 (centres unmarked) fall in the same range of AC50: 1 to 5 µM for the first, 1 to 5 µM for the second.

COCc1ccc2c(C(=O)N3CCc4[nH]cnc4C3c3cc4c(OC)cccn4n3)cnn2c1 (centres unmarked) and COc1cccn2nc([C@@H]3c4nc[nH]c4CCN3C(=O)c3cnn4cc(CN(C)C)ccc34)cc12 (single isomer, unassigned) fall in the same range of AC50: 1 to 5 µM for the first, 1 to 5 µM for the second.

Compared with O=C(c1nnc(-c2ncccn2)o1)N1CCc2[nH]cnc2C1c1cc2ccccn2n1 (centres unmarked), COc1ccc2c(C(=O)N3CCc4[nH]cnc4C3c3cc4cccc(C(F)F)n4n3)cnn2c1 (centres unmarked) is higher in AC50: 1 to 5 µM for the first, over 5 µM for the second.

Same assay, conditions: A375 cells expressing human PAH R408W; 24 hrs compound incubation; 13C-Tyrosine by LC-MS; average where tested multiple times; read-out: AC50

CCc1cccn2nc([C@@H]3c4nc[nH]c4CCN3C(=O)c3nnc(C(C)(C)F)o3)cc12 [Example 1922, (S)-(4-(4-ethylpyrazolo[1,5-a]pyridin-2-yl)-1,4,6,7-tetrahydro-5H-imidazo[4,5-c]pyridin-5-yl)(5-(2-fluoropropan-2-yl)-1,3,4-oxadiazol-2-yl)methanone] and Cc1c[nH]nc1-c1nnc(C(=O)N2CCc3[nH]cnc3[C@H]2c2cc3c(C)cccn3n2)o1 [Example 2292, (S)-(5-(4-methyl-1H-pyrazol-3-yl)-1,3,4-oxadiazol-2-yl)(4-(4-methylpyrazolo[1,5-a]pyridin-2-yl)-1,4,6,7-tetrahydro-5H-imidazo[4,5-c]pyridin-5-yl)methanone] cannot be ordered by AC50: under 0.5 µM for the first, under 0.5 µM for the second.

First: Cn1cc(-c2nnc(C(=O)N3CCc4[nH]cnc4[C@H]3c3cc4c(F)cccn4n3)s2)cn1 [Example 2018, (S)-(4-(4-fluoropyrazolo[1,5-a]pyridin-2-yl)-1,4,6,7-tetrahydro-5H-imidazo[4,5-c]pyridin-5-yl)(5-(1-methyl-1H-pyrazol-4-yl)-1,3,4-thiadiazol-2-yl)methanone]
Second: O=C(c1nc2ccccc2s1)N1CCc2[nH]cnc2[C@H]1c1cc2c(F)cccn2n1 [Example 2002, (S)-benzo[d]thiazol-2-yl(4-(4-fluoropyrazolo[1,5-a]pyridin-2-yl)-1,4,6,7-tetrahydro-5H-imidazo[4,5-c]pyridin-5-yl)methanone]
The AC50 of the first is lower: under 0.5 µM for the first, 0.5 to 1 µM for the second.

c1ccc(N2CCc3[nH]cnc3[C@H]2c2cc3ccccn3n2)cc1 [Example 2239, (S)-5-phenyl-4-(pyrazolo[1,5-a]pyridin-2-yl)-4,5,6,7-tetrahydro-1H-imidazo[4,5-c]pyridine] was tested, and the AC50 was under 0.5 µM.

Same assay, conditions: A375 cells expressing human R408W PAH; 24 hrs compound incubation; 13C-Tyrosine by LC-MS; average where tested multiple times; read-out: AC50

N#Cc1ncoc1C(=O)N1CCc2[nH]cnc2[C@@H]1c1cc2ccc(Br)cn2n1 [Example 683, (R)-5-(4-(6-bromopyrazolo[1,5-a]pyridin-2-yl)-4,5,6,7-tetrahydro-1H-imidazo[4,5-c]pyridine-5-carbonyl)oxazole-4-carbonitrile] and CC(C)(O)c1nc(Br)c(C(=O)N2CCc3[nH]cnc3[C@@H]2c2cc3ccccn3n2)o1 [Example 677, (R)-(4-bromo-2-(2-hydroxypropan-2-yl)oxazol-5-yl)(4-(pyrazolo[1,5-a]pyridin-2-yl)-6,7-dihydro-1H-imidazo[4,5-c]pyridin-5(4H)-yl)methanone] cannot be ordered by AC50: over 5 µM for the first, over 5 µM for the second.

First: COc1ccc(-c2nnc(C(=O)N3CCc4[nH]cnc4[C@@H]3c3cc4c(C(F)F)cccn4n3)o2)nc1 [Example 1425, (R)-(4-(4-(difluoromethyl)pyrazolo[1,5-a]pyridin-2-yl)-6,7-dihydro-1H-imidazo[4,5-c]pyridin-5(4H)-yl)(5-(5-methoxypyridin-2-yl)-1,3,4-oxadiazol-2-yl)methanone]
Second: COc1ccc(-c2nnc(C(=O)N3CCc4[nH]cnc4[C@H]3c3cc4c(C(F)(F)F)cccn4n3)o2)nc1 [Example 932, (S)-(5-(5-methoxypyridin-2-yl)-1,3,4-oxadiazol-2-yl)(4-(4-(trifluoromethyl)pyrazolo[1,5-a]pyridin-2-yl)-6,7-dihydro-1H-imidazo[4,5-c]pyridin-5(4H)-yl)methanone]
The AC50 of the first is higher: 1 to 5 µM for the first, under 0.5 µM for the second.

O=C(c1nnc(C2CC(F)(F)C2)o1)N1CCc2[nH]cnc2[C@H]1c1cc2c(C(F)(F)F)cccn2n1 [Example 1600, (S)-(5-(3,3-difluorocyclobutyl)-1,3,4-oxadiazol-2-yl)(4-(4-(trifluoromethyl)pyrazolo[1,5-a]pyridin-2-yl)-6,7-dihydro-1H-imidazo[4,5-c]pyridin-5(4H)-yl)methanone] and O=C(c1nnc(C2CC(F)(F)C2)o1)N1CCc2[nH]cnc2[C@H]1c1cc2c(C(F)F)cccn2n1 [Example 1602, (S)-(5-(3,3-difluorocyclobutyl)-1,3,4-oxadiazol-2-yl)(4-(4-(difluoromethyl)pyrazolo[1,5-a]pyridin-2-yl)-6,7-dihydro-1H-imidazo[4,5-c]pyridin-5(4H)-yl)methanone] fall in the same range of AC50: 0.5 to 1 µM for the first, 0.5 to 1 µM for the second.

First: Cc1ncccc1-c1nnc(C(=O)N2CCc3[nH]cnc3[C@@H]2c2cc3cccc(C)n3n2)o1 [Example 1359, (R)-(4-(7-methylpyrazolo[1,5-a]pyridin-2-yl)-6,7-dihydro-1H-imidazo[4,5-c]pyridin-5(4H)-yl)(5-(2-methylpyridin-3-yl)-1,3,4-oxadiazol-2-yl)methanone]
Second: Cc1ncccc1-c1nnc(C(=O)N2CCc3[nH]cnc3[C@H]2c2cc3c(C(F)F)cccn3n2)o1 [Example 1394, (S)-(4-(4-(difluoromethyl)pyrazolo[1,5-a]pyridin-2-yl)-6,7-dihydro-1H-imidazo[4,5-c]pyridin-5(4H)-yl)(5-(2-methylpyridin-3-yl)-1,3,4-oxadiazol-2-yl)methanone]
The AC50 of the first is higher: 1 to 5 µM for the first, under 0.5 µM for the second.

First: O=C(c1nnc(-c2cccnc2)o1)N1CCc2[nH]cnc2[C@@H]1c1cc2c(Cl)cccn2n1 [Example 1293, (R)-(4-(4-chloropyrazolo[1,5-a]pyridin-2-yl)-6,7-dihydro-1H-imidazo[4,5-c]pyridin-5(4H)-yl)(5-(pyridin-3-yl)-1,3,4-oxadiazol-2-yl)methanone]
Second: Cc1cccn2nc([C@@H]3c4nc[nH]c4CCN3C(=O)c3nnc(-c4cnn(C(F)(F)F)c4)o3)cc12 [Example 1472, (S)-(4-(4-methylpyrazolo[1,5-a]pyridin-2-yl)-6,7-dihydro-1H-imidazo[4,5-c]pyridin-5(4H)-yl)(5-(1-(trifluoromethyl)-1H-pyrazol-4-yl)-1,3,4-oxadiazol-2-yl)methanone]
The AC50 of the first is higher: 1 to 5 µM for the first, 0.5 to 1 µM for the second.

O=C(c1nnc(-c2ccn(C(F)F)n2)o1)N1CCc2[nH]cnc2[C@H]1c1cc2c(F)cccn2n1 [Example 825, (S)-(5-(1-(difluoromethyl)-1H-pyrazol-3-yl)-1,3,4-oxadiazol-2-yl)(4-(4-fluoropyrazolo[1,5-a]pyridin-2-yl)-6,7-dihydro-1H-imidazo[4,5-c]pyridin-5(4H)-yl)methanone] and O=C(c1nnc(-c2ncccc2F)o1)N1CCc2[nH]cnc2[C@H]1c1cc2cccc(C(F)F)n2n1 [Example 1580, (S)-(4-(7-(difluoromethyl)pyrazolo[1,5-a]pyridin-2-yl)-6,7-dihydro-1H-imidazo[4,5-c]pyridin-5(4H)-yl)(5-(3-fluoropyridin-2-yl)-1,3,4-oxadiazol-2-yl)methanone] cannot be ordered by AC50: under 0.5 µM for the first, under 0.5 µM for the second.

Compared with CC1(c2nnc(C(=O)N3CCc4[nH]cnc4[C@H]3c3cc4c(C(F)(F)F)cccn4n3)o2)CC1 [Example 1325, (S)-(5-(1-methylcyclopropyl)-1,3,4-oxadiazol-2-yl)(4-(4-(trifluoromethyl)pyrazolo[1,5-a]pyridin-2-yl)-6,7-dihydro-1H-imidazo[4,5-c]pyridin-5(4H)-yl)methanone], CC1(c2nnc(C(=O)N3CCc4[nH]cnc4[C@@H]3c3cc4ccccn4n3)o2)CC1 [Example 1285, (R)-(5-(1-methylcyclopropyl)-1,3,4-oxadiazol-2-yl)(4-(pyrazolo[1,5-a]pyridin-2-yl)-6,7-dihydro-1H-imidazo[4,5-c]pyridin-5(4H)-yl)methanone] is higher in AC50: under 0.5 µM for the first, 1 to 5 µM for the second.

O=C(c1nnc(-c2ccccn2)o1)N1CCc2[nH]cnc2[C@H]1c1cc2cccc(Cl)n2n1 [Example 1042, (S)-(4-(7-chloropyrazolo[1,5-a]pyridin-2-yl)-6,7-dihydro-1H-imidazo[4,5-c]pyridin-5(4H)-yl)(5-(pyridin-2-yl)-1,3,4-oxadiazol-2-yl)methanone] and Cn1nc(Cl)nc1C(=O)N1CCc2[nH]cnc2[C@H]1c1cc2ccccn2n1 [Example 694, (S)-(3-chloro-1-methyl-1H-1,2,4-triazol-5-yl)(4-(pyrazolo[1,5-a]pyridin-2-yl)-6,7-dihydro-1H-imidazo[4,5-c]pyridin-5(4H)-yl)methanone] cannot be ordered by AC50: under 0.5 µM for the first, under 0.5 µM for the second.

Work on O=C(c1cnn2cc(-c3ccccn3)ccc12)N1CCc2[nH]cnc2[C@H]1c1cc2c(F)cccn2n1 [Example 1644, (S)-(4-(4-fluoropyrazolo[1,5-a]pyridin-2-yl)-6,7-dihydro-1H-imidazo[4,5-c]pyridin-5(4H)-yl)(6-(pyridin-2-yl)pyrazolo[1,5-a]pyridin-3-yl)methanone] yielded an AC50 of under 0.5 µM.

Reference: patent US20230365592A1 (Agios Pharmaceuticals, Inc., priority 2022, published 2023)
